Data: patent US12460265B2, “Post-treatment breast cancer prognosis” (Biotheranostics, Inc., priority 2010, dated 2025)

Assays:
[1] = tested on: primary ER+ breast cancer; conditions: post-tamoxifen treatment; subjects with primary ER+ breast cancer; cited from earlier work
ER+ breast cancer = assay: NCIC CTG MA.17 case-control study: cancer recurrence after 5 years of adjuvant tamoxifen, letrozole vs placebo; assay type: in vivo, human; conditions: for Cases (cancer recurrence), number / Cases (cancer recurrence), percent: Letrozole arm
Excerpt: Samples from the NCIC CTG MA.17 cohort (see Goss et al., J. Clin. Oncol., 26(12):1948-1955, 2008) were used. 100 cases with 200 controls were used. The 100 cases included 61 cases of distant cancer recurrence; 17 cases of local cancer recurrence; 5 cases of regional cancer recurrence; 16 cases of contralateral recurrences; and 1 unknown case. Of these, the contralateral and unknown cases were excluded.
Clinical follow-up data were available for the samples used, which were formalin-fixed paraffin-embedded (FFPE) tumor blocks from the time of diagnosis. Odds ratios were calculated with analysis of BCI, H:I, HoxB13 and MGI as continuous and categorical variables. Multivariate analysis also included age, tumor grade and treatment in the analysis. Treatment interaction: age and tumor grade were also included in the analysis. P-values were calculated for the interaction term.
STATISTICAL ANALYSES: Kaplan-Meier analysis with logrank test and Cox proportional hazards regression were performed to assess the association of gene expression indexes with clinical outcome. Multivariate Cox regression models were performed to assess the prognostic capacity of gene expression indexes after adjusting for known prognostic factors.
Proportional hazards (PH) assumption was checked by scaled Schoenfeld residuals; variables violating PH assumption were adjusted for in the model through stratification. To account for the case-cohort design of the Table 1 cohort, we used weighted Kaplan-Meier analysis and Cox regression models with modifications to handle case-cohort designs (see ^19,20 as implemented in the survey package in R (www.r-project.org). To test for interaction between dichotomized MGI and the H:I ratio in Cox regression models, the Wald statistic was used in the Table 1 cohort and likelihood ratio test was used in the last cohort.

SMILES: N#Cc1ccc(C(c2ccc(C#N)cc2)n2cncn2)cc1 [Letrozole, letrozole]
- breast cancer-free survival and distant breast cancer-free survival [1]: improves breast cancer-free survival and distant breast cancer-free survival
- Cases (cancer recurrence), number (ER+ breast cancer; High HoxB13 expression): 17
- Cases (cancer recurrence), percent (ER+ breast cancer; High HoxB13 expression): (28%)
- Cases (cancer recurrence), number (ER+ breast cancer; Low HoxB13 expression): 14
- Cases (cancer recurrence), percent (ER+ breast cancer; Low HoxB13 expression): (23%)
- Odds Ratio, Treatment (Placebo vs Letrozole), in relation to cancer recurrence (ER+ breast cancer; univariate analysis, MA.17 subjects, 95% CI in the next column): 2.02
